Drawing on US6046331A, “Imidazolones and their use in treating benign prostatic hyperplasia and other disorders” (Synaptic Pharmaceutical Corporation, priority 1998, dated 2000), this text covers Ki for eight compounds.

SMILES strings stand for the structures.

One assay addresses T1, human α1b receptor (Homo sapiens, UniProt P35368).
T1 construct: The entire coding region of α1b (1563 bp); expressed in transfected cells; host or cells: LM(tk-) mouse fibroblast line L-α1B, ATCC CR 11139
T1 sequence (P35368 1-520): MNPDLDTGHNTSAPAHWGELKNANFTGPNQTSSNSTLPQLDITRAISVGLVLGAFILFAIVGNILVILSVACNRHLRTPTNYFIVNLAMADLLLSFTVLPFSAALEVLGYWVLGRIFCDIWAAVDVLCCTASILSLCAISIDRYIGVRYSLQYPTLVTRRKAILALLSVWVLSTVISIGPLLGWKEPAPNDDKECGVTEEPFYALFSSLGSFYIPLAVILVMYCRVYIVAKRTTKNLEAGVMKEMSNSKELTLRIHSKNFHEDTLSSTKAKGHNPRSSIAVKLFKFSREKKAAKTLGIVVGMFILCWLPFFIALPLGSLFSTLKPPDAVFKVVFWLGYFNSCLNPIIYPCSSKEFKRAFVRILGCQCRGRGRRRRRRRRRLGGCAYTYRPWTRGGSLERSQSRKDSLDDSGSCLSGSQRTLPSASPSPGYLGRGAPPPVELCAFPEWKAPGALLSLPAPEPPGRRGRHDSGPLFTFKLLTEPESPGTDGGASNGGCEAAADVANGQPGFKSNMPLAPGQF
Nature of the assay: Radioligand binding ([^3 H]prazosin) at cloned human α1b receptor. To be noted: LM(tk-) cell membranes, read-out: hα1b Ki. The protocol: (§1) Binding affinities were measured for selected compounds of the invention at six cloned human α1 and α2 receptor subtypes, as well as at the L-type calcium channel. The protocols for these experiments are given below.
(§2) The activity of compounds at the different human receptors was determined in vitro using cultured cell lines that selectively express the receptor of interest. These cell lines were prepared by transfecting the cloned cDNA or cloned genomic DNA or constructs containing both genomic DNA and cDNA encoding the human α-adrenergic receptors as follows:
α1b Human Adrenergic Receptor: The entire coding region of α1b (1563 bp), including 200 base pairs and 5' untranslated sequence (5' UT) and 600 bp of 3' untranslated sequence (3' UT), was cloned into the EcoRI site of pCEXV-3 eukaryotic expression vector. The construct involved ligating the full-length containing EcoRI brainstem cDNA fragment from λ ZapII into the expression vector. Stable cell lines were selected as described above. The cell line used herein was designated L-α1B and was deposited with the American Type Culture Collection, 12301 Parklawn Drive, Rockville, Md. 20852, U.S.A. under the provisions of the Budapest Treaty for the International Recognition of the Deposit of Microorganisms for the Purposes of Patent Procedure. The cell line L-α1B was accorded ATCC Accession No. CR 11139, on Sep. 29, 1992.
(§3) Radioligand Binding Assays for α1 receptors:
(§4) Transfected cells from culture flasks were scraped into 5 ml of 5 mM Tris-HCl, 5 mM EDTA, pH 7.5, and lysed by sonication. The cell lysates were centrifuged at 1000 rpm for 5 min at 4° C., and the supernatant was centrifuged at 30,000× g for 20 min at 4° C. The pellet was suspended in 50 mM Tris-HCl, 1 mM MgCl2, and 0.1% ascorbic acid at pH 7.5. Binding of the α1 antagonist [^3 H]prazosin (0.5 nM, specific activity 76.2 Ci/mmol) to membrane preparations of LM(tk-) cells was done in a final volume of 0.25 ml and incubated at 37° C. for 20 min. Nonspecific binding was determined in the presence of […] phentolamine. The reaction was stopped by filtration through GF/B filters using a cell harvester. Inhibition experiments, routinely consisting of 7 concentrations of the tested compounds, were analyzed using a non-linear regression curve-fitting computer program to obtain Ki values.
(§5) The compounds described above were assayed using cloned human alpha adrenergic receptors. […] The binding affinities of several compounds are illustrated in the following table.
(§6) Binding affinities of selected compounds of the present invention at cloned human α1d, α1b and α1a receptors. (h=human)

The target of the next assay is T2, human α1a receptor (Homo sapiens, UniProt P35348).
T2 construct: The entire coding region of α1a (1401 bp); expressed in transfected cells; host or cells: LM(tk-) mouse fibroblast line L-α1C (old nomenclature), ATCC CR 11140
T2 sequence (P35348 1-466): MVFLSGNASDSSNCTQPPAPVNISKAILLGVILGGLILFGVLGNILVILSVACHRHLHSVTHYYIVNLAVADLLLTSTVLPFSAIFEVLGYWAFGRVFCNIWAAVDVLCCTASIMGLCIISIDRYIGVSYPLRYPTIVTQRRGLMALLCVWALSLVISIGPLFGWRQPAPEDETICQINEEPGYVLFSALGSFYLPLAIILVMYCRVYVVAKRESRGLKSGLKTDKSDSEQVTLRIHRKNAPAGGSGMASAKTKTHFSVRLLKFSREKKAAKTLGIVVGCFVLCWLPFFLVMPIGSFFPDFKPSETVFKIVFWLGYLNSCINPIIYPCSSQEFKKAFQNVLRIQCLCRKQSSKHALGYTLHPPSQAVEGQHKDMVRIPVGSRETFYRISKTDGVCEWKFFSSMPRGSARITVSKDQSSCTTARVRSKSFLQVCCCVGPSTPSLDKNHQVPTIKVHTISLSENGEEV
Nature of the assay: Radioligand binding ([^3 H]prazosin) at cloned human α1a receptor. To be noted: LM(tk-) cell membranes, read-out: hα1a Ki. The protocol:
as §1, §2
α1a Human Adrenergic Receptor: The entire coding region of α1a (1401 bp), including 400 base pairs of 5' untranslated sequence (5' UT) and 200 bp of 3' untranslated sequence (3' UT), was cloned into the KpnI site of the polylinker-modified pCEXV-3-derived eukaryotic expression vector, EXJ.RH. The construct involved ligating three partial overlapping fragments: a 5' 0.6 kb HincII genomic clone, a central 1.8 EcoRI hippocampal cDNA clone, and a 3' 0.6Kb PstI genomic clone. The hippocampal cDNA fragment overlaps with the 5' and 3' genomic clones so that the HincII and PstI sites at the 5' and 3' ends of the cDNA clone, respectively, were utilized for ligation. This full-length clone was cloned into the KpnI site of the expression vector, using the 5' and 3' KpnI sites of the fragment, derived from vector (i.e., pBluescript) and 3'-untranslated sequences, respectively. Stable cell lines were selected as described above. The stable cell line expressing the human α1a receptor used herein was designated L-α1C (old nomenclature) and was deposited with the American Type Culture Collection, 12301 Parklawn Drive, Rockville, Md. 20852, U.S.A. under the provisions of the Budapest Treaty for the International Recognition of the Deposit of Microorganisms for the Purposes of Patent Procedure. The cell line expressing the human α1a receptor was accorded Accession No. CR 11140, on Sep. 25, 1992.
as §3, §4, §5, §6

`COC(=O)c1[nH]c(=O)n(CCCCCN2CCC(C(=O)OC)(c3ccccc3)CC2)c1-c1ccc(F)c(F)c1` [Compound 1, 1-(5-(4-Methoxycarbonyl-4-phenylpiperidin-1-yl)pent-1-yl)-4-methoxycarbonyl-5-(3,4-difluorophenyl)-2,3-dihydro-2(1H)-imidazolone]: the values for the inhibition constant Ki at human α1b receptor and at human α1a receptor were 309 nM and 1.8 nM, respectively.

Consider `COC(=O)c1[nH]c(=O)n(CCCCCN2CCC(C#N)(c3ccccc3)CC2)c1-c1ccc(F)c(F)c1` [Compound 2, 5-(3,4-Difluorophenyl)-2,3-dihydro-4-methoxycarbonyl-1-(5-(4-cyano-4-phenylpiperidin-1-yl)pent-1-yl)-2(1H)-imidazolone], for which the inhibition constant (Ki) at human α1b receptor was found to be 347 nM; at human α1a receptor, 4.1 nM.

As to `COC(=O)c1[nH]c(=O)n(CCCCCN2CCC(O)(c3ccccc3)CC2)c1-c1ccc(F)c(F)c1` [Compound 3, 5-(3,4-Difluorophenyl)-2,3-dihydro-4-methoxycarbonyl-1-(5-(4-hydroxy-4-phenylpiperidin-1-yl)pent-1-yl)-2(1H)-imidazolone], the figures for the inhibition constant Ki on human α1b receptor and at human α1a receptor were 1580 nM and 21.1 nM, respectively.

`COC(=O)c1[nH]c(=O)n(CCCCCN2CCN(c3ccccc3C(N)=O)CC2)c1-c1cc(F)c(F)c(F)c1` [Compound 4, 1-(5-(4-(2-Aminocarbonylphenyl)piperazin-1-yl)pent-1-yl)-5-(3,4,5-trifluorophenyl)-2,3-dihydro-4-methoxycarbonyl-2(1H)-imidazolone]: the results for the Ki at human α1b receptor and at human α1a receptor were 159 nM and 1.5 nM, respectively.

As to `COC(=O)c1ccccc1N1CCN(CCCCCn2c(-c3cc(F)c(F)c(F)c3)c(C(=O)OC)[nH]c2=O)CC1` [Compound 5, 5-(3,4,5-Trifluorophenyl)-2,3-dihydro-4-methoxycarbonyl-1-(5-(4-(2-methoxycarbonylphenyl)piperazin-1-yl)pent-1-yl)-2(1H)-imidazolone], the inhibition constant Ki amounted to 11.7 nM on human α1b receptor and 0.1 nM at human α1a receptor.

For the compound `CCOC(=O)c1[nH]c(=O)n(CCCCCN2CCN(c3ccccc3C(N)=O)CC2)c1-c1ccc(F)c(F)c1` [Compound 6, 1-(5-(4-(2-Aminocarbonylphenyl)piperazin-1-yl)pent-1-yl)-4-ethoxycarbonyl-5-(3,4-difluorophenyl)-2,3-dihydro-2(1H)-imidazolone], the figures for the inhibitory constant (Ki) at human α1b receptor and on human α1a receptor were 110 nM and 1.4 nM, respectively.

With `COC(=O)c1[nH]c(=O)n(CCCCCN2CCN(c3ccccc3C(N)=O)CC2)c1-c1cc(F)c(F)cc1F` [Compound 7, 1-(5-(4-(2-Aminocarbonylphenyl)piperazin-1-yl)pent-1-yl)-5-(2,4,5-trifluorophenyl)-2,3-dihydro-4-methoxylcarboxy-2(1H)-imidazolone], the Ki was 111 nM on human α1b receptor and 1.2 nM at human α1a receptor.

As for `COC(=O)c1[nH]c(=O)n(CCCCCN2CCC(C(=O)OC)(c3ccccc3)CC2)c1Cc1ccc(F)c(F)c1` [Compound 37, 5-(3,4-Difluorobenzyl)-2,3-dihydro-4-methoxycarbonyl-1-(5-(4-methoxycarbonyl-4-phenylpiperidin-1-yl)pent-1-yl)-2(1H) -imidazolone], the Ki at human α1b receptor is 558 nM; at human α1a receptor, 4.5 nM.

What is called Ki is a dissociation constant, usually derived from enzyme kinetics or from competition with a known ligand.
